In publication PMC11224111, “Optimizing the pharmacokinetics of an ^211At-labeled RGD peptide with an albumin-binding moiety via the administration of an albumin-binding inhibitor” (European Journal of Nuclear Medicine and Molecular Imaging, 2024):
Marks after values point to notes of the source that are not given here.

Assay: Biodistribution of [^211At]1 and [^125I]2 in normal mice with ibuprofen or IPBA as albumin-binding inhibitor
Conditions: 4 h after administration
Method: To evaluate the effects of albumin-binding inhibitors in normal mice, [^211At]1 (37 kBq) and [^125I]2 (37 kBq) were intravenously coadministered. […] The total blood albumin (1.1 µmol) in normal mice was calculated from the albumin concentration (3.0 g/dL ≈ 455 µM) in blood, which was informed from Japan SLC, Inc., total blood volume (2.5 mL) as 8% of body weight, and the molecular weight of albumin as 66,000 g/mol. […]
Table S1. Biodistribution of radioactivity 4 h after administration of [^211At]1 and [^125I]2 in normal mice.

[1] = IPBA 10 eq at 1 h postinjection
[2] = ibuprofen 10 eq at 1 h postinjection

## Ga-DOTA-K([^125I]IPBA)-c(RGDfK) [[^125I]2]
IPBA 2 eq at 1 h postinjection
  Radioactivity, Blood: 7.26 (0.34)^ ***, a, b % injected activity per gram
  Radioactivity, Bone: 1.22 (0.11) ^a, b % injected activity per gram
  Radioactivity, Brain: 0.20 (0.03)^ *,^ a % injected activity per gram
  Radioactivity, Heart: 2.49 (0.13)^ **,^ a % injected activity per gram
  Radioactivity, Kidney: 3.46 (0.17)^ * % injected activity per gram
  Radioactivity, L. intestine: 1.14 (0.31)^ ** % injected activity per gram
  Radioactivity, Liver: 1.58 (0.12)^ a % injected activity per gram
  Radioactivity, Lung: 4.22 (0.49)^ ***,^ a, b % injected activity per gram
  Radioactivity, Muscle: 1.02 (0.07)^ *,^ a, b % injected activity per gram
  Radioactivity, Neck: 0.32 (0.10) % injected activity
  Radioactivity, Pancreas: 1.41 (0.10)^ *,^ a, b % injected activity per gram
  Radioactivity, S. intestine: 1.28 (0.03)^ **,^ a % injected activity per gram
  Radioactivity, Spleen: 1.15 (0.11)^ *,^ a, b % injected activity per gram
  Radioactivity, Stomach: 1.21 (0.07)^ * % injected activity
IPBA 5 eq at 1 h postinjection
  Radioactivity, Blood: 2.06 (0.24)^ ***, a, b, c % injected activity per gram
  Radioactivity, Bone: 0.73 (0.06)^ **,^ a, b, c % injected activity per gram
  Radioactivity, Brain: 0.15 (0.02)^ a % injected activity per gram
  Radioactivity, Heart: 0.83 (0.09)^ **,^ a, b, c % injected activity per gram
  Radioactivity, Kidney: 3.52 (0.08)^ *, b % injected activity per gram
  Radioactivity, L. intestine: 0.87 (0.25) % injected activity per gram
  Radioactivity, Liver: 1.20 (0.12)^ *,^ a, b, c % injected activity per gram
  Radioactivity, Lung: 1.92 (0.16)^ **,^ a, b, c % injected activity per gram
  Radioactivity, Muscle: 0.47 (0.04)^ **,^ a, b, c % injected activity per gram
  Radioactivity, Neck: 0.07 (0.02)^ a % injected activity
  Radioactivity, Pancreas: 0.79 (0.10)^ **,^ a, b, c % injected activity per gram
  Radioactivity, S. intestine: 1.33 (0.14) % injected activity per gram
  Radioactivity, Spleen: 0.93 (0.58)^ a, b % injected activity per gram
  Radioactivity, Stomach: 1.11 (0.34)^ **,^ a % injected activity
[1]
  Radioactivity, Blood: 0.95 (0.12)^ **, a, b, c, d % injected activity per gram
  Radioactivity, Bone: 0.77 (0.07)^ **,^ a, b, c % injected activity per gram
  Radioactivity, Brain: 0.15 (0.03)^ a % injected activity per gram
  Radioactivity, Heart: 0.58 (0.10)^ ***,^ a, b, c % injected activity per gram
  Radioactivity, Kidney: 3.60 (0.43) % injected activity per gram
  Radioactivity, L. intestine: 0.98 (0.31) ^*, b % injected activity per gram
  Radioactivity, Liver: 0.84 (0.06)^ a, b, c % injected activity per gram
  Radioactivity, Lung: 1.33 (0.09)^ ***,^ a, b, c % injected activity per gram
  Radioactivity, Neck: 0.03 (0.02)^ b, c, d % injected activity
  Radioactivity, Pancreas: 0.60 (0.15)^ a, b, c, d % injected activity per gram
  Radioactivity, S. intestine: 1.17 (0.13)^ a % injected activity per gram
  Radioactivity, Spleen: 1.00 (0.19)^ **,^ a, b % injected activity per gram
  Radioactivity, Stomach: 0.94 (0.12)^ ** % injected activity
[2]
  Radioactivity, Blood: 10.19 (0.64)^ ***, a % injected activity per gram
  Radioactivity, Bone: 1.56 (0.16)^ a % injected activity per gram
  Radioactivity, Brain: 0.25 (0.05)^ a % injected activity per gram
  Radioactivity, Heart: 3.24 (0.29)^ * % injected activity per gram
  Radioactivity, Kidney: 3.10 (0.24) % injected activity per gram
  Radioactivity, L. intestine: 1.87 (0.66) ^* % injected activity per gram
  Radioactivity, Liver: 1.81 (0.24)^ a % injected activity per gram
  Radioactivity, Lung: 6.02 (0.99)^ *,^ a % injected activity per gram
  Radioactivity, Muscle: 1.19 (0.07) % injected activity per gram
  Radioactivity, Neck: 0.36 (0.12)^ *,^ a % injected activity
  Radioactivity, Pancreas: 1.78 (0.09) % injected activity per gram
  Radioactivity, S. intestine: 1.49 (0.12)^ * % injected activity per gram
  Radioactivity, Spleen: 1.49 (0.18)^ a % injected activity per gram
  Radioactivity, Stomach: 1.16 (0.03)^ * % injected activity
Vehicle at 1 h postinjection
  Radioactivity, Blood: 13.28 (0.80)^ *** % injected activity per gram
  Radioactivity, Bone: 1.84 (0.12) % injected activity per gram
  Radioactivity, Brain: 0.38 (0.09) % injected activity per gram
  Radioactivity, Heart: 4.05 (0.98) % injected activity per gram
  Radioactivity, Kidney: 3.32 (0.15) % injected activity per gram
  Radioactivity, L. intestine: 1.59 (0.38) % injected activity per gram
  Radioactivity, Liver: 2.51 (0.07) % injected activity per gram
  Radioactivity, Lung: 7.38 (0.61)^ * % injected activity per gram
  Radioactivity, Muscle: 1.28 (0.06) % injected activity per gram
  Radioactivity, Neck: 0.13 (0.03)^ * % injected activity
  Radioactivity, Pancreas: 1.81 (0.05) % injected activity per gram
  Radioactivity, S. intestine: 1.94 (0.14)^ ** % injected activity per gram
  Radioactivity, Spleen: 2.11 (0.08) % injected activity per gram
  Radioactivity, Stomach: 0.80 (0.12) % injected activity
